Structures can show the parent of a compound that is named as a salt. Where two headings read alike, the source gives them in different places.

What all share (format): cell-based
In data set [1] the test system is SUDHL10 cells. Description: Induction of cytotoxicity in SUDHL10 cells (Assay 6). To be noted: 5 h, CellTiter-Glo, read-out: Cytotox SUDHL10 IC50 (median). In outline: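 Overnight seeding, 37 °C; 5 h compound exposure; CellTiter-Glo, 15 min RT shake; luminescence read. No-cell medium control.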
For a further data set, the system named is AMO-1 cells. Put plainly: Antiproliferation assay AMO-1 (Assay 7). In outline: (§1)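 IC50 values reflect growth relative to a day 0 baseline (CI) and DMSO vehicle (C0). Viable cells were quantified by CellTiter-Glo luminescence after 72 h treatment at 37 °C.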
The next data set deals with SUDHL5 cells. Put plainly: Antiproliferation assay SUDHL5 (Assay 7). The gist of the method: as §1
Data set [2] concerns SUDHL10 cells. Put plainly: Induction of caspase-3/7 activity in SUDHL10 cells (Assay 4). The gist of the method:
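Caspase-3/7 activity measured in DLBCL lines after 3 h compound exposure at 37 °C, following overnight plating; Caspase-Glo 3/7 luminescence read after 1 h at 37 °C. Medium-only background subtracted, values normalized to mean of DMSO-treated cells.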

Setting [3] is: Homo sapiens, AMO1, 72 h, read-out: Antiproli AMO-1 IC50 median, 72 h, CellTiter-Glo.
Where [4] appears, read: Homo sapiens, SU-DHL-5, 72 h, read-out: Antiproli SUDHL5 IC50 (median), 72 h, CellTiter-Glo.
[5] abbreviates: read-out: Antiproli AMO-1 IC50 median, 72 h, CellTiter-Glo.
The mark [6] stands for this setting: read-out: Caspase SUDHL10 EC50 (median), caspase-3/7 induction, 3 h.

With `Cc1c2c(nn1C)C(CCN1CCOCC1)OCCCCn1c(C(=O)O)c(CCCOc3cccc4cc(F)ccc34)c3ccc(F)c-2c31` (single isomer, unassigned; enantiomer 1) [Example 20, 4-fluoro-7-{3-[(6-fluoronaphthalen-1-yl)oxy]propyl}-2,3-dimethyl-15-[2-(morpholin-4-yl)ethyl]-2,10,11,12,13,15-hexahydropyrazolo[4′,3′:9,10][1,6]oxazacycloundecino[8,7,6-hi]indole-8-carboxylic Acid—N-ethylethanamine (Enantiomer 1)], the IC50 in the data set on SUDHL10 cells [1] (Homo sapiens, SU-DHL10, 5 h) was found to be 41 nM; with AMO-1 cells (setting [3]) it was 94.5 nM; in the data set on SUDHL5 cells (setting [4]), 20 nM. Besides, the EC50 with SUDHL10 cells [2] (Homo sapiens, SU-DHL10, 3 h, read-out: Caspase SUDHL10 EC50 (median), caspase-3/7 induction, 3 h) is 32 nM.

As to `Cc1c2c(nn1C)C(CCO)OCCCCn1c(C(=O)O)c(CCCOc3cccc4ccccc34)c3ccc(Cl)c-2c31` (single isomer, unassigned; enantiomer 1) [Example 31, (+)-4-chloro-15-(2-hydroxyethyl)-2,3-dimethyl-7-{3-[(naphthalen-1-yl)oxy]propyl}-2,10,11,12,13,15-hexahydropyrazolo[4′,3′:9,10][1,6]oxazacycloundecino[8,7,6-hi]indole-8-carboxylic Acid (Enantiomer 1)], the IC50 in the data set on SUDHL10 cells [1] stood at 350 nM; with AMO-1 cells (72 h, CellTiter-Glo, read-out: Antiproli AMO-1 IC50 median), 326 nM; in the data set on SUDHL5 cells (72 h, CellTiter-Glo, read-out: Antiproli SUDHL5 IC50 (median)), 240 nM. In the data set on SUDHL10 cells [2] (caspase-3/7 induction, 3 h, read-out: Caspase SUDHL10 EC50 (median)), the EC50 amounted to 240 nM.

As to `Cc1c2c(nn1C)C(C1CC1)OCCCCn1c(C(=O)O)c(CCCOc3cccc4ccccc34)c3ccc(Cl)c-2c31` (single isomer, unassigned; enantiomer 1) [Example 35, (+)-4-chloro-15-cyclopropyl-2,3-dimethyl-7-{3-[(naphthalen-1-yl)oxy]propyl}-2,10,11,12,13,15-hexahydropyrazolo[4′,3′:9,10][1,6]oxazacycloundecino[8,7,6-hi]indole-8-carboxylic Acid N-ethylethanamine Salt (Enantiomer 1)], the half-inhibitory concentration (IC50) with SUDHL10 cells [1] was 6700 nM; in the data set on AMO-1 cells (setting [5]), 3710 nM; in the data set with SUDHL5 cells (setting [4]), 2700 nM. Moreover, in the data set with SUDHL10 cells [2] (setting [6]), the EC50 was 5900 nM.

For `CCc1c2c(nn1C)C(C1CC1)OCCCCn1c(C(=O)O)c(CCCOc3cccc4cc(F)ccc34)c3ccc(Cl)c-2c31` (single isomer, unassigned; enantiomer 1) [Example 39, (+)-4-chloro-15-cyclopropyl-3-ethyl-7-{3-[(6-fluoronaphthalen-1-yl)oxy]propyl}-2-methyl-2,10,11,12,13,15-hexahydropyrazolo[4′,3′:9,10][1,6]oxazacycloundecino[8,7,6-hi]indole-8-carboxylic Acid—N-ethylethanamine Salt (Enantiomer 1)], the IC50 came out at 1400 nM with SUDHL10 cells [1], 4940 nM in the data set with AMO-1 cells (setting [3]) and 880 nM in the data set on SUDHL5 cells (setting [4]). The EC50 in the data set on SUDHL10 cells [2] (setting [6]) worked out at 1500 nM.

Turning to `CCc1c2c(nn1C)C(CCOC)OCCCCn1c(C(=O)O)c(CCCOc3cccc4cc(F)ccc34)c3ccc(Cl)c-2c31` (single isomer, unassigned; enantiomer 1) [Example 42, (+)-4-chloro-3-ethyl-7-{3-[(6-fluoronaphthalen-1-yl)oxy]propyl}-15-(2-methoxyethyl)-2-methyl-2,10,11,12,13,15-hexahydropyrazolo[4′,3′:9,10][1,6]oxazacycloundecino[8,7,6-hi]indole-8-carboxylic Acid—N-ethylethanamine Salt (Enantiomer 1)], the IC50 in the data set with SUDHL10 cells [1] stood at 66 nM; in the data set on AMO-1 cells (setting [5]) it was 96.9 nM; in the data set on SUDHL5 cells (setting [4]), 52 nM. In the data set with SUDHL10 cells [2] (setting [6]), the EC50 amounted to 52 nM.

For the origin of these results see patent publication US11440923B2, “Substituted macrocyclic indole derivatives” (Bayer Aktiengesellschaft, priority 2017, dated 2022).
